Measured values: article PMC5423977, “Safety, pharmacokinetics, and pharmacodynamics of BMS-986142, a novel reversible BTK inhibitor, in healthy participants” (European Journal of Clinical Pharmacology, 2017)
Where two headings read alike, the source gives them in different places.

Test: Plasma pharmacokinetics of BMS-986142, SAD
Format: in vivo
Conditions: human, oral; for AUC(0-t): n = 6, read-out: AUC(0-T) geometric mean (%CV); for Cmax: n = 6, read-out: Cmax geometric mean (%CV)
Description: Eligible participants were confined to the clinical facility (WCCT Global, LLC, Cypress, CA) the day before dosing (day −1) and randomized to receive SAD or MAD treatment under fasting conditions for 10 h. In the SAD group, eight healthy non-Japanese participants were assigned to each of up to six sequential dose panels (single oral doses of 5, 15, 50, 100, 300, and 900 mg BMS-986142) or placebo. Within each dose panel, participants were randomized in a 3:1 ratio to receive BMS-986142 (n = 6) or placebo (n = 2). In the MAD group, eight healthy non-Japanese participants were assigned to each of four sequential dose panels (daily oral doses of 25, 75, 200, and 350 mg BMS-986142) or placebo. Within each dose panel, participants were randomized in a 3:1 ratio to receive once-daily (QD) doses of BMS-986142 or placebo from day 1 to day 14 (Online Resource 1). Escalation to the next dose level in SAD and MAD was conducted after safety assessment had been completed and the treatment was considered safe and well tolerated. Additionally, dose levels in MAD were selected not to exceed the steady-state exposure of BMS-986142 (AUC: 22,920 ng h/mL) at NOAEL in rats obtained from a 1-month GLP toxicology study.
Blood samples for the measurement of BMS-986142 were collected up to 168 h after dosing of BMS-986142 on day 1 for participants in SAD. In MAD, blood samples were collected up to 24 h on day 1 and up to 120 h on day 14 (the last day of treatment). Blood samples for the measurement of MTX were collected up to 48 h after dosing of MTX on days 1 and 8.
Plasma samples were analyzed for BMS-986142 levels with a validated method using liquid chromatography tandem mass spectrometry (LC-MS/MS) detection. The analyte was extracted from 50 μL of plasma using a liquid–liquid extraction method. Methyl tert-butyl ether was used as the extraction solvent. The lower limit of quantification (LLOQ) was 1.00 ng/mL in plasma. Plasma samples were analyzed for methotrexate levels using LC-MS/MS detection. Analytes were isolated from 50 μL plasma through solid phase extraction using Waters Oasis MAX, 10-mg, 96-well SPE plates. The final extract was analyzed using LC-MS/MS detection. LLOQ was 1.00 ng/mL in plasma. Detailed methodology quantitating the concentration level of BMS-986142 and MTX is provided in Online Resource 10.
Individual subject pharmacokinetic parameters for BMS-986142 and MTX were derived by a non-compartmental method using validated PK software (WinNonLin version 6.3; Pharsight Corporation, Mountain View, CA, USA). The following PK parameters for BMS-986142 and MTX were derived from plasma concentration versus time data: maximum observed plasma concentration (Cmax); minimum observed plasma concentration (Cmin); time to maximum observed plasma concentration (Tmax); area under the plasma concentration-time curve from time zero to the time of the last quantifiable concentration (AUC(0-T)), from time zero extrapolated to infinite time (AUC(inf)), and in one dosing interval (AUC(TAU)); terminal plasma half-life (T1/2); and AUC accumulation index (AI_AUC). AI_AUC was calculated to divide AUC(TAU) on day 14 by AUC(TAU) on day 1.
Summary statistics were tabulated for all PK parameters by treatment and study days. Geometric mean (Gmean) and coefficient of variation (CV) are presented for Cmax, AUC(0-T), AUC(inf), AI_AUC, Cmin, and AUC(TAU); arithmetic mean and standard deviation (SD) are presented for T1/2; and median and range are presented for Tmax. Dose proportionality was assessed using the previously described power model. Briefly, the simple linear regression was applied to the natural log of the PK parameters on the natural log of dose using the following equation (Eq. 1).1 ElogPKParameterDose=α+β∗logDose.
A slope (β) equal to 1 would indicate perfect dose proportionality. For each PK parameter (Cmax, AUC(0-T), AUC(TAU), and AUC(inf)), point estimates and 90% CI of the slopes were calculated.

Cc1c(-c2c(F)cc(C(N)=O)c3[nH]c4c(c23)CC[C@H](C(C)(C)O)C4)cccc1-n1c(=O)c2cccc(F)c2n(C)c1=O [BMS-986142, 6-fluoro-5-(R)-(3-(S)-(8-fluoro-1-methyl-2,4-dioxo-1,2-dihydroquinazolin-3(4H)-yl)-2-methylphenyl)-2-(S)-(2-hydroxypropan-2-yl)-2,3,4,9-tetrahydro-1H-carbazole-8-carboxamide]
half-life (both sexes, 5 mg, at low dose levels, read-out: T1/2 (converted)): ~7 h
half-life (both sexes, at therapeutic doses, read-out: Mean T1/2): ≤ 11 h
half-life (both sexes, single dose, 5–900 mg dose range, read-out: Mean T1/2 (half-life), range over doses): 7 to 11 h
Tmax (both sexes, single dose, 5–900 mg dose range, read-out: Median Tmax (time of peak concentrations)): ≤ 2 h
half-life (5 mg, SAD day 1, 5 mg, n = 5, read-out: T1/2 mean (SD) (converted)): 6.87 h
half-life (15 mg, SAD day 1, 15 mg, n = 6, read-out: T1/2 mean (SD) (converted)): 8.02 h
half-life (50 mg, SAD day 1, 50 mg, n = 6, read-out: T1/2 mean (SD) (converted)): 9.7 h
half-life (100 mg, SAD day 1, 100 mg, n = 6, read-out: T1/2 mean (SD) (converted)): 10.3 h
half-life (300 mg, SAD day 1, 300 mg, n = 6, read-out: T1/2 mean (SD) (converted)): 10.6 h
half-life (900 mg, SAD day 1, 900 mg, n = 6, read-out: T1/2 mean (SD) (converted)): 10.7 h
AUC(0-inf) (SAD day 1, 5 mg, n = 5, read-out: AUC(inf) geometric mean (%CV)): 102 ng·h/mL
AUC(0-t) (SAD day 1, 5 mg): 83.1 ng·h/mL
Cmax (SAD day 1, 5 mg): 9.03 ng/mL
Tmax (SAD day 1, 5 mg, n = 6, read-out: Tmax median (min, max)): 2.03 h
AUC(0-t) (SAD day 1, 15 mg): 369 ng·h/mL
AUC(0-inf) (SAD day 1, 15 mg, n = 6, read-out: AUC(inf) geometric mean (%CV)): 388 ng·h/mL
Cmax (SAD day 1, 15 mg): 36.9 ng/mL
Tmax (SAD day 1, 15 mg, n = 6, read-out: Tmax median (min, max)): 2 h
AUC(0-t) (SAD day 1, 50 mg): 1560 ng·h/mL
AUC(0-inf) (SAD day 1, 50 mg, n = 6, read-out: AUC(inf) geometric mean (%CV)): 1590 ng·h/mL
Cmax (SAD day 1, 50 mg): 185 ng/mL
Tmax (SAD day 1, 50 mg, n = 6, read-out: Tmax median (min, max)): 1 h
AUC(0-t) (SAD day 1, 100 mg): 3000 ng·h/mL
AUC(0-inf) (SAD day 1, 100 mg, n = 6, read-out: AUC(inf) geometric mean (%CV)): 3020 ng·h/mL
Cmax (SAD day 1, 100 mg): 311 ng/mL
Tmax (SAD day 1, 100 mg, n = 6, read-out: Tmax median (min, max)): 1.5 h
AUC(0-t) (SAD day 1, 300 mg): 11300 ng·h/mL
AUC(0-inf) (SAD day 1, 300 mg, n = 6, read-out: AUC(inf) geometric mean (%CV)): 11400 ng·h/mL
Cmax (SAD day 1, 300 mg): 1080 ng/mL
Tmax (SAD day 1, 300 mg, n = 6, read-out: Tmax median (min, max)): 1.02 h
AUC(0-t) (SAD day 1, 900 mg): 28000 ng·h/mL
AUC(0-inf) (SAD day 1, 900 mg, n = 6, read-out: AUC(inf) geometric mean (%CV)): 28100 ng·h/mL
Cmax (SAD day 1, 900 mg): 1880 ng/mL
Tmax (SAD day 1, 900 mg, n = 6, read-out: Tmax median (min, max)): 2 h
